Experimental data as given in the supplement of paper PMC10307832.

Experiments:
Test in all cases: relative viability (nuclei count vs DMSO), 5 days (fraction); higher = more cells survive
EMC-BAC-2 = tested on: EMC-BAC-2
Summary of the method: (§1)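 Lung cancer cell lines were seeded in 1536-well plates and dosed by pin tool the next day, with either a single drug or a fixed anchor-drug dose combined with five library-drug doses (not always all listed) spaced in √10 steps. Five days later, one step fixed the cells and stained their nuclei (final 0.05% Triton X-100, 1% formaldehyde, 1 ug/ml Hoechst), and nuclei were counted on 4× images. Relative viability is the nuclei count in treated wells divided by the count in vehicle wells, and each value is the median of duplicate plates.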

HCC-366 = tested on: HCC-366
Summary of the method: as §1

NCI-H2170 = tested on: NCI-H2170
Summary of the method: as §1

PC-3 [JPC-3] = tested on: PC-3 [JPC-3]
Summary of the method: as §1

SK-MES-1 = tested on: SK-MES-1
Summary of the method: as §1

NCI-H23 = tested on: NCI-H23
Summary of the method: as §1

COR-L 105 = tested on: COR-L 105
Summary of the method: as §1

NCI-H596 = tested on: NCI-H596
Summary of the method: as §1

H3255 = tested on: H3255
Summary of the method: as §1

NCI-H1975 = tested on: NCI-H1975
Summary of the method: as §1

A-427 = tested on: A-427
Summary of the method: as §1

EKVX = tested on: EKVX
Summary of the method: as §1

NCI-H520 = tested on: NCI-H520
Summary of the method: as §1

NCI-H1563 = tested on: NCI-H1563
Summary of the method: as §1

LOU-NH91 = tested on: LOU-NH91
Summary of the method: as §1

NCI-H1666 = tested on: NCI-H1666
Summary of the method: as §1

NCI-H441 = tested on: NCI-H441
Summary of the method: as §1

NCI-H1755 = tested on: NCI-H1755
Summary of the method: as §1

NCI-H1734 = tested on: NCI-H1734
Summary of the method: as §1

ChaGo-K-1 = tested on: ChaGo-K-1
Summary of the method: as §1

LK-2 = tested on: LK-2
Summary of the method: as §1

COc1cc2nccc(Oc3ccc(NC(=O)Nc4cc(C)on4)c(Cl)c3)c2cc1OC [Tivozanib] + CS(=O)(=O)N1CCN(Cc2cc3nc(-c4cccc5[nH]ncc45)nc(N4CCOCC4)c3s2)CC1 [Pictilisib] (partner 1 µM)
relative viability (EMC-BAC-2; first compound 0.005 µM): 0.561 | relative viability (EMC-BAC-2; first compound 0.01581 µM): 0.529 | relative viability (EMC-BAC-2; first compound 0.05 µM): 0.554 | relative viability (EMC-BAC-2; first compound 0.1581 µM): 0.389 | relative viability (EMC-BAC-2; first compound 0.5 µM): 0.578 | relative viability (HCC-366; first compound 0.005 µM): 0.126 | relative viability (HCC-366; first compound 0.01581 µM): 0.179 | relative viability (HCC-366; first compound 0.05 µM): 0.103 | relative viability (HCC-366; first compound 0.1581 µM): 0.189 | relative viability (HCC-366; first compound 0.5 µM): 0.175 | relative viability (NCI-H2170; first compound 0.005 µM): 0.312 | relative viability (NCI-H2170; first compound 0.01581 µM): 0.344 | relative viability (NCI-H2170; first compound 0.05 µM): 0.404 | relative viability (NCI-H2170; first compound 0.5 µM): 0.335 | relative viability (PC-3 [JPC-3]; first compound 0.005 µM): 0.705 | relative viability (PC-3 [JPC-3]; first compound 0.01581 µM): 0.698 | relative viability (PC-3 [JPC-3]; first compound 0.05 µM): 0.757 | relative viability (PC-3 [JPC-3]; first compound 0.1581 µM): 0.604 | relative viability (PC-3 [JPC-3]; first compound 0.5 µM): 0.706 | relative viability (SK-MES-1; first compound 0.005 µM): 0.325 | relative viability (SK-MES-1; first compound 0.01581 µM): 0.34 | relative viability (SK-MES-1; first compound 0.05 µM): 0.416 | relative viability (SK-MES-1; first compound 0.1581 µM): 0.289 | relative viability (SK-MES-1; first compound 0.5 µM): 0.363 | relative viability (NCI-H23; first compound 0.005 µM): 0.443 | relative viability (NCI-H23; first compound 0.01581 µM): 0.471 | relative viability (NCI-H23; first compound 0.05 µM): 0.409 | relative viability (NCI-H23; first compound 0.1581 µM): 0.319 | relative viability (NCI-H23; first compound 0.5 µM): 0.49 | relative viability (COR-L 105; first compound 0.01581 µM): 0.405 | relative viability (COR-L 105; first compound 0.05 µM): 0.431 | relative viability (COR-L 105; first compound 0.1581 µM): 0.347 | relative viability (COR-L 105; first compound 0.5 µM): 0.317 | relative viability (NCI-H596; first compound 0.005 µM): 0.28 | relative viability (NCI-H596; first compound 0.01581 µM): 0.364 | relative viability (NCI-H596; first compound 0.05 µM): 0.427 | relative viability (NCI-H596; first compound 0.1581 µM): 0.411 | relative viability (NCI-H596; first compound 0.5 µM): 0.326 | relative viability (H3255; first compound 0.005 µM): 0.451 | relative viability (H3255; first compound 0.01581 µM): 0.435 | relative viability (H3255; first compound 0.05 µM): 0.538 | relative viability (H3255; first compound 0.1581 µM): 0.449 | relative viability (H3255; first compound 0.5 µM): 0.421 | relative viability (NCI-H1975; first compound 0.005 µM): 0.278 | relative viability (NCI-H1975; first compound 0.01581 µM): 0.277 | relative viability (NCI-H1975; first compound 0.05 µM): 0.271 | relative viability (NCI-H1975; first compound 0.1581 µM): 0.234 | relative viability (NCI-H1975; first compound 0.5 µM): 0.275 | relative viability (A-427; first compound 0.005 µM): 0.656 | relative viability (A-427; first compound 0.01581 µM): 0.746 | relative viability (A-427; first compound 0.05 µM): 0.705 | relative viability (A-427; first compound 0.1581 µM): 0.511 | relative viability (A-427; first compound 0.5 µM): 0.71 | relative viability (EKVX; first compound 0.005 µM): 0.392 | relative viability (EKVX; first compound 0.01581 µM): 0.426 | relative viability (EKVX; first compound 0.05 µM): 0.535 | relative viability (EKVX; first compound 0.1581 µM): 0.394 | relative viability (EKVX; first compound 0.5 µM): 0.497 | relative viability (NCI-H520; first compound 0.005 µM): 0.263 | relative viability (NCI-H520; first compound 0.01581 µM): 0.256 | relative viability (NCI-H520; first compound 0.05 µM): 0.295 | relative viability (NCI-H520; first compound 0.1581 µM): 0.242 | relative viability (NCI-H520; first compound 0.5 µM): 0.302 | relative viability (NCI-H1563; first compound 0.005 µM): 0.668 | relative viability (NCI-H1563; first compound 0.01581 µM): 0.729 | relative viability (NCI-H1563; first compound 0.05 µM): 0.622 | relative viability (NCI-H1563; first compound 0.1581 µM): 0.699 | relative viability (NCI-H1563; first compound 0.5 µM): 0.581 | relative viability (LOU-NH91; first compound 0.005 µM): 0.467 | relative viability (LOU-NH91; first compound 0.01581 µM): 0.519 | relative viability (LOU-NH91; first compound 0.05 µM): 0.559 | relative viability (LOU-NH91; first compound 0.1581 µM): 0.485 | relative viability (LOU-NH91; first compound 0.5 µM): 0.526 | relative viability (NCI-H1666; first compound 0.005 µM): 0.404 | relative viability (NCI-H1666; first compound 0.01581 µM): 0.393 | relative viability (NCI-H1666; first compound 0.05 µM): 0.384 | relative viability (NCI-H1666; first compound 0.1581 µM): 0.389 | relative viability (NCI-H1666; first compound 0.5 µM): 0.478 | relative viability (NCI-H441; first compound 0.005 µM): 0.571 | relative viability (NCI-H441; first compound 0.01581 µM): 0.511 | relative viability (NCI-H441; first compound 0.05 µM): 0.536 | relative viability (NCI-H441; first compound 0.1581 µM): 0.484 | relative viability (NCI-H441; first compound 0.5 µM): 0.31 | relative viability (NCI-H1755; first compound 0.005 µM): 0.365 | relative viability (NCI-H1755; first compound 0.01581 µM): 0.402 | relative viability (NCI-H1755; first compound 0.05 µM): 0.453 | relative viability (NCI-H1755; first compound 0.1581 µM): 0.405 | relative viability (NCI-H1755; first compound 0.5 µM): 0.396 | relative viability (NCI-H1734; first compound 0.005 µM): 0.45 | relative viability (NCI-H1734; first compound 0.01581 µM): 0.443 | relative viability (NCI-H1734; first compound 0.05 µM): 0.456 | relative viability (NCI-H1734; first compound 0.1581 µM): 0.359 | relative viability (NCI-H1734; first compound 0.5 µM): 0.442 | relative viability (ChaGo-K-1; first compound 0.005 µM): 0.591 | relative viability (ChaGo-K-1; first compound 0.01581 µM): 0.779 | relative viability (ChaGo-K-1; first compound 0.05 µM): 0.559 | relative viability (ChaGo-K-1; first compound 0.1581 µM): 0.388 | relative viability (ChaGo-K-1; first compound 0.5 µM): 0.504 | relative viability (LK-2; first compound 0.005 µM): 0.574 | relative viability (LK-2; first compound 0.01581 µM): 0.472 | relative viability (LK-2; first compound 0.05 µM): 0.6 | relative viability (LK-2; first compound 0.1581 µM): 0.459 | relative viability (LK-2; first compound 0.5 µM): 0.909
